Results from the kinase profiling compilation of Christmann-Franck et al. (2016).

Tests used:
Assay in all cases: radiometric filter-binding kinase assay, Kinase HotSpot
Details in all cases: compound 0.5 µM; ATP 10 µM
[1] = target: STK4 (human) (UniProt Q13043)
[2] = target: CDK6 CCND1 (human) (UniProt Q00534+P24385)
[3] = target: AKT2 (human) (UniProt P31751)
[4] = target: ADRBK1 (human) (UniProt P25098)
[5] = target: NLK (human) (UniProt Q9UBE8)
[6] = target: CAMKK2 (human) (UniProt Q96RR4)
[7] = target: EPHB4 (human) (UniProt P54760)
[8] = target: LRRK2 (human) (UniProt Q5S007)
[9] = target: RPS6KB2 (human) (UniProt Q9UBS0)
[10] = target: SRPK1 (human) (UniProt Q96SB4)
[11] = target: HCK (human) (UniProt P08631)
[12] = target: EPHA5 (human) (UniProt P54756)
[13] = target: MAP3K8 (human) (UniProt P41279)
[14] = target: GSK3A (human) (UniProt P49840)
[15] = target: CAMK1G (human) (UniProt Q96NX5)
[16] = target: MAPK10 (human) (UniProt P53779)
[17] = target: FRK (human) (UniProt P42685)
[18] = target: MLTK (human) (UniProt Q9NYL2)
[19] = target: MUSK (human) (UniProt O15146)
[20] = target: PRKACA (human) (UniProt P17612)
[21] = target: RPS6KA2 KD1 KD2 (human) (UniProt Q15349)
[22] = target: PLK1 (human) (UniProt P53350)
[23] = target: TAOK2 (human) (UniProt Q9UL54)
[24] = target: AURKA (human) (UniProt O14965)
[25] = target: NTRK1 (human) (UniProt P04629)
[26] = target: HIPK4 (human) (UniProt Q8NE63)
[27] = target: PHKG2 (human) (UniProt P15735)
[28] = target: GRK4 (human) (UniProt P32298)
[29] = target: CDC42BPA (human) (UniProt Q5VT25)
[30] = target: CSNK1A1 (human) (UniProt P48729)
[31] = target: STK39 (human) (UniProt Q9UEW8)
[32] = target: GSK3B (human) (UniProt P49841)
[33] = target: MARK1 (human) (UniProt Q9P0L2)
[34] = target: MAPKAPK5 (human) (UniProt Q8IW41)
[35] = target: MARK2 (human) (UniProt Q7KZI7)
[36] = target: EPHA3 (human) (UniProt P29320)
[37] = target: TAOK3 (human) (UniProt Q9H2K8)
[38] = target: MYLK2 (human) (UniProt Q9H1R3)
[39] = target: PAK6 (human) (UniProt Q9NQU5)
[40] = target: PDPK1 (human) (UniProt O15530)
[41] = target: YES1 (human) (UniProt P07947)
[42] = target: EGFR (human) (UniProt P00533)

MAP3K8 (human), sequence (P41279 whole entry, looked up): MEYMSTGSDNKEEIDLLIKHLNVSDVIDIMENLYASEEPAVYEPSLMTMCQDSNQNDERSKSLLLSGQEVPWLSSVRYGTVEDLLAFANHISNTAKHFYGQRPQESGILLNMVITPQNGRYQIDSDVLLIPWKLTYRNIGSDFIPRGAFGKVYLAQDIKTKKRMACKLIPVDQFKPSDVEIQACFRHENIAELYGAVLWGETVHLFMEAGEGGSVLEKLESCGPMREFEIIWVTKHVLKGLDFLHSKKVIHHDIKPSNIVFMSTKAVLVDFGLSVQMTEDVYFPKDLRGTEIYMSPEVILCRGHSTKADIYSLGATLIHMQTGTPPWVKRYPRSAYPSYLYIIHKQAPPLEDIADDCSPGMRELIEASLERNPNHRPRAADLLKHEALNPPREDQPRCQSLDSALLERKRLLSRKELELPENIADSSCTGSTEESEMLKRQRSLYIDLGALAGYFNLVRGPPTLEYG
PLK1 (human), sequence (P53350 whole entry, looked up): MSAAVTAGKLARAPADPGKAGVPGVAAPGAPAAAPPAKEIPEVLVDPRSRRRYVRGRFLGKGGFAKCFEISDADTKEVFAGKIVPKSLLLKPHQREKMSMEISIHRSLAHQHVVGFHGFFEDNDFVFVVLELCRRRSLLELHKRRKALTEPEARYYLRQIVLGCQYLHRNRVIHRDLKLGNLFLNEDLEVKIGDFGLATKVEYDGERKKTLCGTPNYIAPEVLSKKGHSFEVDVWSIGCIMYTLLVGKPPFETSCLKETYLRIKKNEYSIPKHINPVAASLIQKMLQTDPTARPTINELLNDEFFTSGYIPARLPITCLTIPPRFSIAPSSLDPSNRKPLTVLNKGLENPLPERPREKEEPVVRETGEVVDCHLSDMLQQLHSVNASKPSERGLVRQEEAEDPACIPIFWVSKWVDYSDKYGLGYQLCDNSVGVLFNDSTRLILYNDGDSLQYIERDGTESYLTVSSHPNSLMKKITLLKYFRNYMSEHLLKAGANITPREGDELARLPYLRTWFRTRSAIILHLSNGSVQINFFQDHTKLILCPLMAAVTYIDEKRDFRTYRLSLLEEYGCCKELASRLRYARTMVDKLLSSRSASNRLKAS
NTRK1 (human), sequence (P04629 whole entry, looked up): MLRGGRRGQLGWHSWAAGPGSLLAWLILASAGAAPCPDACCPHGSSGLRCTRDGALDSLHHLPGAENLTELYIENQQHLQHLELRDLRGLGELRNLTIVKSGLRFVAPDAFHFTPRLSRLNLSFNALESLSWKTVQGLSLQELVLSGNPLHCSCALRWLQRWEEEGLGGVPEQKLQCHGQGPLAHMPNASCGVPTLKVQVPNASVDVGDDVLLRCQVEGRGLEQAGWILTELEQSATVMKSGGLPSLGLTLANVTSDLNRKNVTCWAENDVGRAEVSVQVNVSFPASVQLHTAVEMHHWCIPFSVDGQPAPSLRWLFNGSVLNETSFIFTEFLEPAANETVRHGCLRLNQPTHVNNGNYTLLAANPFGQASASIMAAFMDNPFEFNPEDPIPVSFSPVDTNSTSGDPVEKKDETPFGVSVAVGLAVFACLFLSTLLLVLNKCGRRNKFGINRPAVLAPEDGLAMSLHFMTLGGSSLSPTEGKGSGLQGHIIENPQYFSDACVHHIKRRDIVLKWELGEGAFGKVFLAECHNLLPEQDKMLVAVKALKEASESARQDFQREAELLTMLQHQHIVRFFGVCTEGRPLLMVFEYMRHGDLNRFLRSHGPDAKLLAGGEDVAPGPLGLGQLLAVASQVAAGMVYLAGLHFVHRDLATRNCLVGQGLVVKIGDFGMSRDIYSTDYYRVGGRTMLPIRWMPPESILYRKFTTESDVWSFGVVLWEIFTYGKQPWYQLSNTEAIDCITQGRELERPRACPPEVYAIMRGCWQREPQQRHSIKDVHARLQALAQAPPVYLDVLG
HIPK4 (human), sequence (Q8NE63 whole entry, looked up): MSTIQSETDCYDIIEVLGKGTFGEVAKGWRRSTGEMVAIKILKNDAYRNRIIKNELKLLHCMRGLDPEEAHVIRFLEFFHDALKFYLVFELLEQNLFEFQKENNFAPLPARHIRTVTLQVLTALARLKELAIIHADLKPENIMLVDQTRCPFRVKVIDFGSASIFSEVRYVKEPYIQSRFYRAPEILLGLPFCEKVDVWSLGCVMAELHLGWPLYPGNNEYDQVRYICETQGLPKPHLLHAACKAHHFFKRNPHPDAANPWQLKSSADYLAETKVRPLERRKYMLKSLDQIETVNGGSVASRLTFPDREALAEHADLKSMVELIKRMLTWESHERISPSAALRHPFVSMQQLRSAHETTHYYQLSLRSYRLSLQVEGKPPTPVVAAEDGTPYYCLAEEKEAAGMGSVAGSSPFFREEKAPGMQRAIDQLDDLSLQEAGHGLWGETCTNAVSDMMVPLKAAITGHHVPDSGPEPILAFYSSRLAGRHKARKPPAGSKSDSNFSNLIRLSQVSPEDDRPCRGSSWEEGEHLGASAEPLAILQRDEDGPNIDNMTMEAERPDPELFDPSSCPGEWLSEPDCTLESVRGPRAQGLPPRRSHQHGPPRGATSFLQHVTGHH
EPHA5 (human), sequence (P54756 whole entry, looked up): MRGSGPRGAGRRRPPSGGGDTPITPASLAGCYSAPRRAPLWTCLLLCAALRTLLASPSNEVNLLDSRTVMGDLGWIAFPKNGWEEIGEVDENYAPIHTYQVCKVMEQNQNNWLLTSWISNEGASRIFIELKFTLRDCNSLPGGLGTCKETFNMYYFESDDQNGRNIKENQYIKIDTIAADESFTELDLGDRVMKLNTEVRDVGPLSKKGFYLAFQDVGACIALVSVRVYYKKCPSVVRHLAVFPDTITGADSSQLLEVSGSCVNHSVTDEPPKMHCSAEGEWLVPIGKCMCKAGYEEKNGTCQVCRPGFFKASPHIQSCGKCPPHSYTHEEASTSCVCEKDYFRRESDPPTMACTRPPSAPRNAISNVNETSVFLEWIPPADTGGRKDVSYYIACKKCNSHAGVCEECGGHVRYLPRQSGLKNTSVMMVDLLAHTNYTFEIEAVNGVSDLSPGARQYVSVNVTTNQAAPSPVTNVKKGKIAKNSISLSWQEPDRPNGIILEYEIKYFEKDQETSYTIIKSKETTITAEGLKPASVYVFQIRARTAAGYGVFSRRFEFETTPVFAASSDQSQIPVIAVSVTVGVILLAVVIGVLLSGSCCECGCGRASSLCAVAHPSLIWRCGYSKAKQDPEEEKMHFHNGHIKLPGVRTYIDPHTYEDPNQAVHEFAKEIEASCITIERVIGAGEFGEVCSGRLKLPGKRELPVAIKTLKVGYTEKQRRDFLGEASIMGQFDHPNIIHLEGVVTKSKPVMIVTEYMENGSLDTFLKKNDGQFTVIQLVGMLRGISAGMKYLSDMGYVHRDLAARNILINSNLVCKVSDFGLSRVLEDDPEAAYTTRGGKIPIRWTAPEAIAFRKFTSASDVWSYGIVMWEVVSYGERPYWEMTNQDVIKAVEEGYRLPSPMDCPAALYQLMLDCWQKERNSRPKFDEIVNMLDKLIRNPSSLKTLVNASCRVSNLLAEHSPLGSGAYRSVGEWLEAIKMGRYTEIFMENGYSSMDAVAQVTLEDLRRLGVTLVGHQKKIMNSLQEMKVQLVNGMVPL
AKT2 (human), sequence (P31751 whole entry, looked up): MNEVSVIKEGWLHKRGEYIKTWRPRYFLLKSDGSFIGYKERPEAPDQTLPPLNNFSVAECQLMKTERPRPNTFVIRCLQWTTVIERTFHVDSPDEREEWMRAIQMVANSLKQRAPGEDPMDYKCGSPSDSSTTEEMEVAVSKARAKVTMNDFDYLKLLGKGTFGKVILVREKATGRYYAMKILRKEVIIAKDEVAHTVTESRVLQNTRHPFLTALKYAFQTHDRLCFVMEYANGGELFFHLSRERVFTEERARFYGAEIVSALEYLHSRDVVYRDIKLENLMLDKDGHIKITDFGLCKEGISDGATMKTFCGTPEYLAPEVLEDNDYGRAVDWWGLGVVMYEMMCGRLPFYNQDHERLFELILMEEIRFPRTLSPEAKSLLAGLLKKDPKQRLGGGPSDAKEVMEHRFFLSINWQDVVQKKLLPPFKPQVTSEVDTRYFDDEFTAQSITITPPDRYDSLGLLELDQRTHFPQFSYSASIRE
MLTK (human), sequence (Q9NYL2 whole entry, looked up): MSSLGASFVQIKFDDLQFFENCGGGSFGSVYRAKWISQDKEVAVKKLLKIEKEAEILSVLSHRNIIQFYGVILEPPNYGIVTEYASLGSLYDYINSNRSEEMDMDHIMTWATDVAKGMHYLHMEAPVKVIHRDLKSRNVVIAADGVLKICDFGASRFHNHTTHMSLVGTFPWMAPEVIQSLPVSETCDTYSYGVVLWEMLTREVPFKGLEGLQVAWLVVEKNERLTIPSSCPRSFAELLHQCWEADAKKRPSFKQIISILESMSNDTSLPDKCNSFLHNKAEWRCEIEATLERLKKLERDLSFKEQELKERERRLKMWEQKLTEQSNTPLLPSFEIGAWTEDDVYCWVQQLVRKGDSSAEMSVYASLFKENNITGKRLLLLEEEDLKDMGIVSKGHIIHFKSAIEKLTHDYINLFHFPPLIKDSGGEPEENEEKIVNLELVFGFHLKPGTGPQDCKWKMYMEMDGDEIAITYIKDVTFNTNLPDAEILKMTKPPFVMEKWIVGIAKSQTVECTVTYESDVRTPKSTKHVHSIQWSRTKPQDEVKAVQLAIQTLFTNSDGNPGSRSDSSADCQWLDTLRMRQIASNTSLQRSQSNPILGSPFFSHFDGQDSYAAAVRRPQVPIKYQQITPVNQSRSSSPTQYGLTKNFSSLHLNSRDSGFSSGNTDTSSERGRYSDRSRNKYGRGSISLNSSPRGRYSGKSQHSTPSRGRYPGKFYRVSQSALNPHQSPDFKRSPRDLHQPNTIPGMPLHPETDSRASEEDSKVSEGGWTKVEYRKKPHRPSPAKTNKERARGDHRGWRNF

SMILES: O=C1NC(=O)C(c2c[nH]c3ccccc23)=C1c1c[nH]c2ccccc12
- residual activity [1]: 61.8%
- residual activity [2]: 88.7%
- residual activity [3]: 102%
- residual activity [4]: 98.4%
- residual activity [5]: 103%
- residual activity [6]: 92.8%
- residual activity [7]: 88.5%
- residual activity [8]: 77.5%
- residual activity [9]: 94.6%
- residual activity [10]: 89.4%
- residual activity [11]: 96%
- residual activity [12]: 95.3%
- residual activity [13]: 90.8%
- residual activity [14]: 27.7%
- residual activity [15]: 99.5%
- residual activity [16]: 110%
- residual activity [17]: 88.2%
- residual activity [18]: 107%
- residual activity [19]: 76.4%
- residual activity [20]: 101%
- residual activity [21]: 11.5%
- residual activity [22]: 94.5%
- residual activity [23]: 102%
- residual activity [24]: 108%
- residual activity [25]: 92%
- residual activity [26]: 109%
- residual activity [27]: 107%
- residual activity [28]: 97.1%
- residual activity [29]: 89.9%
- residual activity [30]: 98.4%
- residual activity [31]: 93.6%
- residual activity [32]: 28.4%
- residual activity [33]: 90.6%
- residual activity [34]: 119%
- residual activity [35]: 88.9%
- residual activity [36]: 95.1%
- residual activity [37]: 85.2%
- residual activity [38]: 91.9%
- residual activity [39]: 92.4%
- residual activity [40]: 96.7%
- residual activity [41]: 88.4%

SMILES: O=C1NC(=O)/C(=C\c2ccc3nccnc3c2)S1
- residual activity [1]: 95%
- residual activity [2]: 97.5%
- residual activity [3]: 101%
- residual activity [4]: 93.3%
- residual activity [5]: 92.4%
- residual activity [6]: 72.9%
- residual activity [7]: 101%
- residual activity [8]: 96%
- residual activity [9]: 94.7%
- residual activity [10]: 110%
- residual activity [11]: 92.2%
- residual activity [12]: 99.5%
- residual activity [13]: 99.6%
- residual activity [14]: 88.8%
- residual activity [15]: 105%
- residual activity [16]: 96%
- residual activity [17]: 91.7%
- residual activity [18]: 93.6%
- residual activity [19]: 16.2%
- residual activity [20]: 97.2%
- residual activity [21]: 85.4%
- residual activity [22]: 100%
- residual activity [23]: 89.9%
- residual activity [24]: 97.2%
- residual activity [25]: 94.2%
- residual activity [26]: 95%
- residual activity [27]: 97.4%
- residual activity [28]: 106%
- residual activity [29]: 93.1%
- residual activity [30]: 89.2%
- residual activity [31]: 104%
- residual activity [32]: 93.4%
- residual activity [33]: 96.2%
- residual activity [35]: 93%
- residual activity [36]: 97.1%
- residual activity [42]: 81.6%
- residual activity [37]: 93.1%
- residual activity [38]: 97.2%
- residual activity [39]: 107%
- residual activity [40]: 104%
- residual activity [41]: 89.3%

SMILES: CC(C)c1nn(-c2c(Cl)cccc2Cl)c2nc(Cc3ccc(OCCO)cc3)nc(O)c12
- residual activity [1]: 96.7%
- residual activity [2]: 19.8%
- residual activity [3]: 92.4%
- residual activity [4]: 94.8%
- residual activity [5]: 97.6%
- residual activity [6]: 90.9%
- residual activity [7]: 90.7%
- residual activity [8]: 109%
- residual activity [9]: 106%
- residual activity [10]: 97.4%
- residual activity [11]: 94.7%
- residual activity [12]: 110%
- residual activity [13]: 96.4%
- residual activity [14]: 73.1%
- residual activity [15]: 100%
- residual activity [16]: 109%
- residual activity [17]: 89.6%
- residual activity [18]: 94.4%
- residual activity [19]: 96.2%
- residual activity [20]: 99.8%
- residual activity [21]: 80.8%
- residual activity [22]: 93.9%
- residual activity [23]: 93.3%
- residual activity [24]: 107%
- residual activity [25]: 89%
- residual activity [26]: 94.7%
- residual activity [27]: 102%
- residual activity [28]: 97.3%
- residual activity [29]: 89.5%
- residual activity [30]: 99%
- residual activity [31]: 99.9%
- residual activity [32]: 47.1%
- residual activity [33]: 93.3%
- residual activity [35]: 88%
- residual activity [36]: 86.2%
- residual activity [42]: 95.2%
- residual activity [37]: 91.3%
- residual activity [38]: 96.6%
- residual activity [39]: 102%
- residual activity [40]: 94.9%
- residual activity [41]: 86.3%
